The record followed here is ChEMBL document CHEMBL1671662, “In vitro activities of telavancin and six comparator agents against anaerobic bacterial isolates” (2009).

As usually defined, the MIC50 is an inhibitory concentration at the 50% level, which refers to growth in some studies and to a panel of isolates in others. As usually defined, the MIC90 is an inhibitory concentration at the 90% level, which refers to growth in some studies and to a panel of isolates in others.

Each structure is given as a SMILES string.

What all share (assay type): functional
One experiment deals with Bacteroides ovatus. Description: Antibacterial activity against Bacteroides ovatus by CLSI M11-A6 agar dilution method in presence of beta-lactamase inhibitor Sulbactam. (In agar dilution the substance is mixed into plates at graded concentrations.)
The test system of a further experiment is Hoylesella oralis. Description: Antibacterial activity against Prevotella oralis by CLSI M11-A6 agar dilution method in presence of beta-lactamase inhibitor Sulbactam.
The test system of another experiment is Clostridium spiroforme. Description: Antibacterial activity against Clostridium spiroforme by CLSI M11-A6 agar dilution method in presence of beta-lactamase inhibitor Sulbactam. The following applies: Thomasclavelia spiroformis.
Another experiment deals with Clostridium scindens. Description: Antibacterial activity against Clostridium scindens by CLSI M11-A6 agar dilution method in presence of beta-lactamase inhibitor Sulbactam.

Consider `CC1(C)S[C@@H]2[C@H](NC(=O)[C@H](N)c3ccccc3)C(=O)N2[C@H]1C(=O)O` [AMPICILLIN], for which the MIC50 in the experiment with Bacteroides ovatus is 2 µg/mL; in the experiment on Hoylesella oralis it was ≤ 0.12 µg/mL; in the experiment with Clostridium spiroforme, 0.25 µg/mL; in the experiment on Clostridium scindens, 0.25 µg/mL. The MIC90 in the experiment on Bacteroides ovatus is 4 µg/mL; with Hoylesella oralis, 2 µg/mL; in the experiment on Clostridium spiroforme, 1 µg/mL; in the experiment with Clostridium scindens, 1 µg/mL.
